Results published in US5627198A, “Heterocyclic amides” (Hafslund Nycomed Pharma Aktiengesellschaft, priority 1994, dated 1997).

Assays:
[1] = test system: bladder strips; assay: Effects on the bladder muscle in vitro (relaxant effect on bladder strips); parameters: species or system guinea pigs; details: Cavia porcellus; guinea pig bladder strips; contractions triggered by electrical stimulation or KCl depolarization; read-out: A IC50 (concentration which reduces contraction of bladder strips by 50%)
Experimental: Effects on the bladder muscle in vitro
In these experiments, the IC50 value denotes the concentration of a substance which reduces contraction by 50%.
Male albino guinea pigs weighing about 400 g are killed painlessly by a blow to the neck and quickly exsanguinated. The abdominal cavity is opened and the bladder is carefully resectioned. It is placed in a Petri dish filled with Krebs solution, and surrounding connective and fatty tissue is removed. Two horizontal strips of tissue are prepared. With the aid of two threads which are attached to both ends of the strips of tissue, the strips are suspended in an organ bath. They are fastened at the bottom to a hook and at the top to an electric force transducer which is able to measure precisely contractions of 0-10 g in strength. The measured contractions are amplified by means of a bridge amplifier and are recorded with a thermal plotter. The signals obtained can also be integrated electronically on another plotter channel in order to quantify in-phase contractions.
(§1) The organ baths are filled with Krebs solution at 37° C. through which an O2 /CO2 mixture is bubbled thoroughly and which has the following composition (mmol/1): NaCl 118.4; KCl 4.7; CaCl2 2.5; KH2 PO4 1.2; MgSO4 1.2; NaHCO3 25; glucose 11.
The strips are stretched with a basic tone of about 0.5 g. After an equilibration time of about 30 minutes, one of the two strips is stimulated electrically every minute using built-in electrodes (period of stimulation 2 seconds, 30 Hz, 0.5 ms pulse width, 10 volts) in order to trigger short-term contractions. The other strip is made to exert in-phase contraction by depolarization (addition of […] KCl to the organ bath). Both the contractions triggered by electrical stimulation and those initiated by depolarization and occurring in the strips of bladder muscle quickly reach a plateau. As soon as this plateau is reached ("100% value"), the test substance is added to the organ bath, initially at 10w concentrations, for example 10^-8 M, and then in increasing doses at regular intervals, until the contractions reduce or the final concentration of 10^-4 M is reached. Each test substance is tested 2-4 times in this way.
(§2) For purposes of evaluation, the height of the contractions registered on the plotter paper is measured for each experiment after the action of each test concentration added. The IC50 value can be calculated in this way in relation to the original height of contractions before the addition of substance (100%). All of the IC50 values are shown in column A of Table 1.

[2] = test system: rings of aorta; assay: Effects on vessel muscle in vitro (aorta rings, KCl depolarization); parameters: species or system rats; details: rat aorta rings contracted with 25 mM KCl; read-out: B IC50 (rings of aorta)
Experimental: Effects on vessel muscle in vitro
Male rats weighing about 300 g are killed painlessly by a blow to the neck and quickly exsanguinated. The thoracic cavity is opened and the aorta is carefully resectioned. It is placed in a Petri dish filled with Krebs solution, and surrounding connective and fatty tissue is removed. Two rings are prepared. The rings are each suspended in an organ bath. They are attached at the bottom to a hook and at the top to an electrical force transducer which is able to measure precisely contractions of 0-10 grams in strength. The measured contractions are amplified by means of a bridge amplifier and recorded with a thermal plotter.
as §1
The rings are stretched with a basic tone of about 0.5 g. After an equilibration time of about 30 minutes, the rings are caused to undergo contraction by depolarization (addition of 25 mM KCl to the organ bath). The contractions of the rings of aorta, triggered by the depolarization, quickly reach a plateau. As soon as this plateau is reached ("100% value"), the test substance is added to the organ bath, initially at low concentrations, for example 10^-8 M, and then in increasing doses at regular intervals, until the contractions reduce or the final concentration of 10^-4 M is reached. Each test substance is tested 2-4 times in this way.
as §2, with “(100%).” for “(100%). All of the”, “B” for “A”

[3] = test system: arterial blood pressure, conscious rat; assay: Effects on blood pressure in vivo, conscious rat; parameters: species or system Sprague-Dawley rats
Experimental: Effects on blood pressure in vivo
The rats were fasted overnight before the day of the experiment.
On the day of experiment, the rats were brought into the laboratory and their blood pressure and heart rate was recorded over about 30 minutes. The test substances, suspended in 0.5% methylcellulose, were then administered perorally via a stomach tube (volume: 3 ml/kg of body weight) and blood pressure and heart rate were measured over the next 6 hours. The percentage changes in the measured values in relation to the initial values were calculated and were determined for groups of 3-4 similarly treated animals.

IC50 [1] [µM] | IC50 [2] [µM] | Structure (SMILES) | Reduction in diastolic pressure, % of initial value ([3]; 6 mg/kg peroral, 30 min) | Reduction in diastolic pressure, % of initial value ([3]; 6 mg/kg peroral, 60 min) | Reduction in diastolic pressure, % of initial value ([3]; 6 mg/kg peroral, 120 min) | Reduction in diastolic pressure, % of initial value ([3]; 1 mg/kg peroral, 15 min) | Reduction in diastolic pressure, % of initial value ([3]; 1 mg/kg peroral, 30 min) | Reduction in diastolic pressure, % of initial value ([3]; 1 mg/kg peroral, 60 min) | Reduction in diastolic pressure, % of initial value ([3]; 1 mg/kg peroral, 120 min) | Reduction in diastolic pressure, % of initial value ([3]; 6 mg/kg peroral, 15 min) | Reduction in diastolic pressure, % of initial value ([3]; 18 mg/kg peroral, 15 min) | Reduction in diastolic pressure, % of initial value ([3]; 18 mg/kg peroral, 30 min) | Reduction in diastolic pressure, % of initial value ([3]; 18 mg/kg peroral, 60 min) | Reduction in diastolic pressure, % of initial value ([3]; 18 mg/kg peroral, 120 min)
50 | 10 | CC(O)(C(=O)Nc1nnc(C(=O)c2ccccc2)s1)C(F)(F)F (stereo not shown) [Example 3, N-[5-(Phenylcarbonyl)-1,3,4-thiadiazol-2-yl]-3,3,3-trifluoro-2-hydroxy-2-methylpropanamide] | 3 % of initial value | 2 % of initial value | 4 % of initial value | – | – | – | – | – | – | – | – | –
100 | 2.5 | CC(O)(C(=O)Nc1ccc(C(=O)c2ccccc2)s1)C(F)(F)F (stereo not shown) [Example 1, N-[5-(Phenylcarbonyl)thien-2-yl]-3,3,3-tri-fluoro-2-hydroxy-2-methylpropanamide] | 3 % of initial value | 2 % of initial value | 4 % of initial value | – | – | – | – | – | – | – | – | –
1 | 0.065 | CC1(C)Oc2ccc(C#N)cc2C(N2CCCC2=O)C1O (stereo not shown) [V, cromakalim, reference compound] | – | – | – | 53 % of initial value | 49 % of initial value | 40 % of initial value | 26 % of initial value | – | – | – | – | –
1.7 | 1.2 | CC(O)(C(=O)Nc1ccc(S(=O)(=O)c2ccccc2)s1)C(F)(F)F (stereo not shown) [Example 4, N-[5-(Phenylsulfonyl)thien-2-yl]-3,3,3-trifluoro-2-hydroxy-2-methylpropanamide] | 5 % of initial value | 4 % of initial value | 6 % of initial value | – | – | – | – | 1 % of initial value | 0 % of initial value | 8 % of initial value | 10 % of initial value | 15 % of initial value
100 | 20 | CC(O)(C(=O)Nc1ncc(C(=O)c2ccccc2)s1)C(F)(F)F (stereo not shown) [Example 2, N-[5-(Phenylcarbonyl)thiazol-2-yl]-3,3,3-trifluoro-2-hydroxy-2-methylpropanamide] | 8 % of initial value | 5 % of initial value | – | – | – | – | – | 2 % of initial value | – | – | – | –
